Measured values reported in PubChem BioAssay AID2060618 (Molecular Pharmacology Branch, DTP, NCI, 2025).

Test system: 454973-116-R2-J3-PDC spheroids, percent test/control viability
Experiment: Anticancer human tumor 454973-116-R2-J3-PDC patient-derived pancreatic carcinoma cell line growth inhibition [CLK]
Settings: spheroids with HUVEC and MSC; for IC50: curve of first compound; for viability, T/C: stronger effect = lower value
Procedure, shortened: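 Multi-cell-type spheroids combined patient-derived tumor cells with HUVEC endothelial cells and human mesenchymal stem cells. Paired agents were dosed in half-log steps down from about clinical Cmax, or from 10 microM where Cmax was unknown.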
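Note: spheroids exposed to compounds for 7 days before readout.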

With `C=CC(=O)Nc1cc(Nc2nccc(-c3cn(C)c4ccccc34)n2)c(OC)cc1N(C)CCN(C)C` + CNC(=O)c1ccc(Nc2nc(OC3CCCC3)c3c(-c4ccc5nc(C)oc5c4)c[nH]c3n2)c(OC)c1 the IC50 (second compound 0.0316 µM) was > 300 nM, the IC50 (second compound 0.1 µM) was > 300 nM and the IC50 (second compound 0.316 µM) was < 0.949 nM. For the same compound, the IC50 (second compound 1 µM) was < 0.949 nM, the IC50 (second compound 3.16 µM) was < 0.949 nM and the IC50 (second compound 10 µM) was < 0.949 nM. It also gave a viability, T/C (second compound 0.0316 µM, first compound 0.000949 µM) of 106%, a viability, T/C (second compound 0.0316 µM, first compound 0.003 µM) of 108% and a viability, T/C (second compound 0.0316 µM, first compound 0.00949 µM) of 92.5%. For the same compound, the viability, T/C (second compound 0.0316 µM, first compound 0.03 µM) was 107%, the viability, T/C (second compound 0.0316 µM, first compound 0.0949 µM) was 104% and the viability, T/C (second compound 0.0316 µM, first compound 0.3 µM) was 101%. The viability, T/C (second compound 0.1 µM, first compound 0.000949 µM) was 95.9%, the viability, T/C (second compound 0.1 µM, first compound 0.003 µM) was 106% and the viability, T/C (second compound 0.1 µM, first compound 0.00949 µM) was 90.7%. For the same compound, the viability, T/C (second compound 0.1 µM, first compound 0.03 µM) was 80.9%, the viability, T/C (second compound 0.1 µM, first compound 0.0949 µM) was 69.7% and the viability, T/C (second compound 0.1 µM, first compound 0.3 µM) was 61%. It also gave a viability, T/C (second compound 0.316 µM, first compound 0.000949 µM) of 43.8%, a viability, T/C (second compound 0.316 µM, first compound 0.003 µM) of 36.4% and a viability, T/C (second compound 0.316 µM, first compound 0.00949 µM) of 30.5%. The viability, T/C (second compound 0.316 µM, first compound 0.03 µM) was 34.8%, the viability, T/C (second compound 0.316 µM, first compound 0.0949 µM) was 36.4% and the viability, T/C (second compound 0.316 µM, first compound 0.3 µM) was 32.7%. For the same compound, the viability, T/C (second compound 1 µM, first compound 0.000949 µM) was 27.9%, the viability, T/C (second compound 1 µM, first compound 0.003 µM) was 30.9% and the viability, T/C (second compound 1 µM, first compound 0.00949 µM) was 30.5%. For the same compound, the viability, T/C (second compound 1 µM, first compound 0.03 µM) was 29.8%, the viability, T/C (second compound 1 µM, first compound 0.0949 µM) was 34.5% and the viability, T/C (second compound 1 µM, first compound 0.3 µM) was 33.9%. It also gave a viability, T/C (second compound 3.16 µM, first compound 0.000949 µM) of 29.9%, a viability, T/C (second compound 3.16 µM, first compound 0.003 µM) of 28.3% and a viability, T/C (second compound 3.16 µM, first compound 0.00949 µM) of 26.7%. The viability, T/C (second compound 3.16 µM, first compound 0.03 µM) was 27.8%, the viability, T/C (second compound 3.16 µM, first compound 0.0949 µM) was 31.1% and the viability, T/C (second compound 3.16 µM, first compound 0.3 µM) was 22.1%. For the same compound, the viability, T/C (second compound 10 µM, first compound 0.000949 µM) was 33.9%, the viability, T/C (second compound 10 µM, first compound 0.003 µM) was 24% and the viability, T/C (second compound 10 µM, first compound 0.00949 µM) was 21.9%. For the same compound, the viability, T/C (second compound 10 µM, first compound 0.03 µM) was 25.4%, the viability, T/C (second compound 10 µM, first compound 0.0949 µM) was 27.9% and the viability, T/C (second compound 10 µM, first compound 0.3 µM) was 20.4%.
With `Nc1ccccc1NC(=O)c1ccc(CNC(=O)OCc2cccnc2)cc1` + CNC(=O)c1ccc(Nc2nc(OC3CCCC3)c3c(-c4ccc5nc(C)oc5c4)c[nH]c3n2)c(OC)c1 the IC50 (second compound 0.0316 µM) was 1620 nM, the IC50 (second compound 0.1 µM) was 1660 nM and the IC50 (second compound 0.316 µM) was < 31.6 nM. The IC50 (second compound 1 µM) was < 31.6 nM, the IC50 (second compound 3.16 µM) was < 31.6 nM and the IC50 (second compound 10 µM) was < 31.6 nM. The viability, T/C (second compound 0.0316 µM, first compound 0.0316 µM) was 97.2%, the viability, T/C (second compound 0.0316 µM, first compound 0.1 µM) was 102% and the viability, T/C (second compound 0.0316 µM, first compound 0.316 µM) was 87.2%. The viability, T/C (second compound 0.0316 µM, first compound 1 µM) was 69.4%, the viability, T/C (second compound 0.0316 µM, first compound 3.16 µM) was 25.1% and the viability, T/C (second compound 0.0316 µM, first compound 10 µM) was 5.57%. It also gave a viability, T/C (second compound 0.1 µM, first compound 0.0316 µM) of 107%, a viability, T/C (second compound 0.1 µM, first compound 0.1 µM) of 95.9% and a viability, T/C (second compound 0.1 µM, first compound 0.316 µM) of 91.8%. The viability, T/C (second compound 0.1 µM, first compound 1 µM) was 69%, the viability, T/C (second compound 0.1 µM, first compound 3.16 µM) was 26.8% and the viability, T/C (second compound 0.1 µM, first compound 10 µM) was 6.74%. The viability, T/C (second compound 0.316 µM, first compound 0.0316 µM) was 46.9%, the viability, T/C (second compound 0.316 µM, first compound 0.1 µM) was 40.4% and the viability, T/C (second compound 0.316 µM, first compound 0.316 µM) was 42.2%. It also gave a viability, T/C (second compound 0.316 µM, first compound 1 µM) of 31.3%, a viability, T/C (second compound 0.316 µM, first compound 3.16 µM) of 19% and a viability, T/C (second compound 0.316 µM, first compound 10 µM) of 5.37%. For the same compound, the viability, T/C (second compound 1 µM, first compound 0.0316 µM) was 29.1%, the viability, T/C (second compound 1 µM, first compound 0.1 µM) was 27.1% and the viability, T/C (second compound 1 µM, first compound 0.316 µM) was 23.6%. The viability, T/C (second compound 1 µM, first compound 1 µM) was 28.6%, the viability, T/C (second compound 1 µM, first compound 3.16 µM) was 16.8% and the viability, T/C (second compound 1 µM, first compound 10 µM) was 3.41%. It also gave a viability, T/C (second compound 3.16 µM, first compound 0.0316 µM) of 28.7%, a viability, T/C (second compound 3.16 µM, first compound 0.1 µM) of 30.1% and a viability, T/C (second compound 3.16 µM, first compound 0.316 µM) of 24.4%. For the same compound, the viability, T/C (second compound 3.16 µM, first compound 1 µM) was 27.1%, the viability, T/C (second compound 3.16 µM, first compound 3.16 µM) was 17.2% and the viability, T/C (second compound 3.16 µM, first compound 10 µM) was 2.74%. It also gave a viability, T/C (second compound 10 µM, first compound 0.0316 µM) of 26.9%, a viability, T/C (second compound 10 µM, first compound 0.1 µM) of 24.5% and a viability, T/C (second compound 10 µM, first compound 0.316 µM) of 21.1%. For the same compound, the viability, T/C (second compound 10 µM, first compound 1 µM) was 21.8%, the viability, T/C (second compound 10 µM, first compound 3.16 µM) was 16.8% and the viability, T/C (second compound 10 µM, first compound 10 µM) was 2.21%.
